The values below come from PubChem BioAssay AID1963967 (Molecular Pharmacology Branch, DTP, NCI, 2024).

Structures are written as SMILES. “And” between values parts separate entries of the source, which are not always exact repeats. Equal values may be shown once.

This test concerns 855422-203-R-J1-PDC spheroids with HUVEC/MSC, viability. The test is described as follows: Anticancer human tumor 855422-203-R-J1-PDC patient-derived bladder carcinoma cell line growth inhibition [PI3K]. The note with it: for viability, T/C: stronger effect = lower value. Put shortly: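 Combination activity was assessed by viability in multicellular tumor spheroids carrying HUVEC and MSC components. Agents were tested with PI3K inhibitors from a Cmax-based top dose (or 10 microM) downward in half-log increments.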
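Further: agents incubated with spheroids for one week before read-out.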
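Wherever viability, T/C is given: 100% = DMSO vehicle-treated control wells.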

For orientation: viability, T/C means the ratio of treated to control. A word on the IC50: it is the concentration at which inhibition is half-maximal. Take `C#Cc1c(F)ccc2cc(O)cc(-c3ncc4c(N5CC6CCC(C5)N6)nc(OCC56CCCN5CC(F)C6)nc4c3F)c12` (stereo unspecified): the viability, T/C by setting is: (compound 0.0316 µM) 110% [middle of 4 runs]; (compound 0.1 µM) 101% (2×) and 94.4% and 83.5%; (compound 0.316 µM) 109% [middle of 4 runs]; (compound 1 µM) 103% [middle of 4 runs]; (compound 3.16 µM) 109% [middle of 4 runs]; (compound 10 µM) 114% (2×) and 107% and 112%. Also, the IC50 (curve of compound) was over 10 µM.
With `CNC(=O)c1ccc(N2C(=S)N(c3ccc(C#N)c(C(F)(F)F)c3)C(=O)C2(C)C)cc1F`, the viability, T/C is 110% [middle of 4 runs] (compound 0.0316 µM); 99.4% [middle of 4 runs] (compound 0.1 µM); 106% [middle of 4 runs] (compound 0.316 µM); 84.8% [middle of 4 runs] (compound 1 µM); 79.4% [middle of 4 runs] (compound 3.16 µM); 66.9% [middle of 4 runs] (compound 10 µM). Further, for the setting “curve of compound”, the IC50 was over 10 µM.
As for `Cn1nccc1Nc1nccc(-c2ccn(C(CO)c3ccc(Cl)c(F)c3)c(=O)c2)n1` (stereo unspecified) + CC(Nc1ccc2c(c1)OCCn1cc(N3C(=O)OCC3C(F)F)nc1-2)C(N)=O, the IC50 was 7.22 µM (curve of first compound, second compound 0.00316 µM); 6.7 µM (curve of first compound, second compound 0.01 µM); 5.55 µM (curve of first compound, second compound 0.0316 µM); 3.78 µM (curve of first compound, second compound 0.1 µM); 0.796 µM (curve of first compound, second compound 0.316 µM); under 0.0316 µM (curve of first compound, second compound 1 µM). The viability, T/C is 103% (second compound 0.00316 µM, first compound 0.0316 µM); 84.7% (second compound 0.00316 µM, first compound 0.1 µM); 95.7% (second compound 0.00316 µM, first compound 0.316 µM); 89.7% (second compound 0.00316 µM, first compound 1 µM); 80.7% (second compound 0.00316 µM, first compound 3.16 µM); 38.3% (second compound 0.00316 µM, first compound 10 µM). Moreover, the viability, T/C is 98.4% (second compound 0.01 µM, first compound 0.0316 µM); 96.2% (second compound 0.01 µM, first compound 0.1 µM); 93.5% (second compound 0.01 µM, first compound 0.316 µM); 82.8% (second compound 0.01 µM, first compound 1 µM); 76% (second compound 0.01 µM, first compound 3.16 µM); 37% (second compound 0.01 µM, first compound 10 µM). In addition, the viability, T/C is 62.7% (second compound 0.0316 µM, first compound 0.0316 µM); 82.1% (second compound 0.0316 µM, first compound 0.1 µM); 89.7% (second compound 0.0316 µM, first compound 0.316 µM); 82.8% (second compound 0.0316 µM, first compound 1 µM); 70.1% (second compound 0.0316 µM, first compound 3.16 µM); 29.1% (second compound 0.0316 µM, first compound 10 µM). For the same compound, the viability, T/C is, setting by setting: (second compound 0.1 µM, first compound 0.0316 µM) 72.4%; (second compound 0.1 µM, first compound 0.1 µM) 79.4%; (second compound 0.1 µM, first compound 0.316 µM) 79.1%; (second compound 0.1 µM, first compound 1 µM) 64.7%; (second compound 0.1 µM, first compound 3.16 µM) 56.8%; (second compound 0.1 µM, first compound 10 µM) 20.2%. Besides, the viability, T/C is 53.6% (second compound 0.316 µM, first compound 0.0316 µM); 52.5% (second compound 0.316 µM, first compound 0.1 µM); 51.8% (second compound 0.316 µM, first compound 0.316 µM); 49.5% (second compound 0.316 µM, first compound 1 µM); 29.3% (second compound 0.316 µM, first compound 3.16 µM); 10.6% (second compound 0.316 µM, first compound 10 µM). For the same compound, the viability, T/C is, setting by setting: (second compound 1 µM, first compound 0.0316 µM) 35.9%; (second compound 1 µM, first compound 0.1 µM) 32.2%; (second compound 1 µM, first compound 0.316 µM) 29.9%; (second compound 1 µM, first compound 1 µM) 26.4%; (second compound 1 µM, first compound 3.16 µM) 17.3%; (second compound 1 µM, first compound 10 µM) 8.01%.
